{"source": "patent US11879848B2", "about": "“Graphene-based multi-modal sensors” (The Regents of the University of California, priority 2015, dated 2024)", "system": "neonatal rat cardiomyocytes (CM)", "assay": "cardiomyocyte contractions registered by PMMA/AuNI/graphene strain sensor in electrophysiological chamber", "type": "cell-based", "settings": "10 μM blebbistatin in the solution around the cells; CM culture on PMMA/AuNI/graphene; room temperature", "description": "The graphene/metal nanoisland composite film structures can also be deployed in biological settings. For example, the performance of graphene/AuNI sensors in biological settings is tested by culturing neonatal rat cardiomyocytes (CM) on coverslips that are coated with a composite polymethylmethacrylate (PMMA)/AuNI/graphene film structure.\nUsing a specialized chamber shown in FIG. 4c and detailed below, reversible changes in the sensor signal that correlated with the spontaneous activity of cardiomyocytes can be detected, as shown in FIG. 4d.\nAn excitation-contraction uncoupler such as blebbistatin, that inhibits myosin cycling and stops the contractions of the cells, but not the electrical activity, can be used to distinguish whether the signal detected by the strain sensor was related to the contractile or electrical activity of the cells.\nElectrophysiology. Neonatal rat ventricular cardiomyocytes were isolated using the neonatal rat cardiomyocyte isolation kit (Worthington) and cultured at 37° C. with 5% CO2. In brief, ventricles were dissected from 1 d-old Hsd:SD rats (Sprague Dawley), then digested overnight at 4° C. with trypsin. Digestion continued the following morning with collagenase for approximately 60 min at 37° C. […]", "data": [{"smiles": "Cc1ccc2c(c1)C(=O)C1(O)CCN(c3ccccc3)C1=N2", "note": "(stereo not shown) [blebbistatin]", "values": [{"measurement": "modulations of the sensor signal (contractions of the cells)", "value": "No noticeable modulations of the signal"}]}]}
